From ChEMBL document CHEMBL4346675, “Multi-target compounds acting in cancer progression: Focus on thiosemicarbazone, thiazole and thiazolidinone analogues” (Eur J Med Chem, 2019)

Tests used:
[1] = molecular target: Tubulin (Homo sapiens) (UniProt P68371+Q9H4B7+P0DPH7+P68366+Q13509+Q71U36+P04350+Q3ZCM7+P07437+P68363+Q9BQE3+Q6PEY2+Q13885+Q9BVA1+Q9BUF5); assay: Inhibition of tubulin polymerization (unknown origin) at 3 uM incubated for 1 hr by fluorescence assay relative to control; format: protein-complex assay
[2] = tested on: MDA-MB-231; assay: Cytotoxicity against human MDA-MB-231 cells incubated for 48 hrs by MTT assay; format: functional, cell-based; details: MDA-MB-231, 48 h
[3] = tested on: L1210; assay: Growth inhibition of mouse L1210 cells by MTS assay; format: functional, cell-based
[4] = tested on: NIH3T3; assay: Anti-invasive activity against mouse NIH/3T3 cells transfected with human AdoMetDC cDNA in antisense orientation assessed as inhibition of cell invasion at 100 ng/ml incubated for 1 weeks by matrigel-based microscopic analysis relative to control; format: functional; details: NIH3T3, 168 h
[5] = tested on: MDA-MB-231; assay: Anti-invasive activity against human MDA-MB-231 cells at 30 nM by crystal violet staining based Boyden chamber assay relative to control; format: functional
[6] = tested on: NIH3T3; assay: Anti-invasive activity against mouse NIH/3T3 cells transfected with human AdoMetDC cDNA in sense orientation assessed as inhibition of cell invasion at 100 ng/ml incubated for 1 weeks by matrigel-based microscopic analysis relative to control; format: functional; details: NIH3T3, 168 h
[7] = molecular target: Histone deacetylase 1 (Homo sapiens, UniProt Q13547); assay: Inhibition of HDAC1 (unknown origin) using Ac-peptide as substrate pretreated for 15 mins followed by substrate addition and measured after 60 mins by fluorescence assay
Histone deacetylase 1, sequence (Q13547 whole entry): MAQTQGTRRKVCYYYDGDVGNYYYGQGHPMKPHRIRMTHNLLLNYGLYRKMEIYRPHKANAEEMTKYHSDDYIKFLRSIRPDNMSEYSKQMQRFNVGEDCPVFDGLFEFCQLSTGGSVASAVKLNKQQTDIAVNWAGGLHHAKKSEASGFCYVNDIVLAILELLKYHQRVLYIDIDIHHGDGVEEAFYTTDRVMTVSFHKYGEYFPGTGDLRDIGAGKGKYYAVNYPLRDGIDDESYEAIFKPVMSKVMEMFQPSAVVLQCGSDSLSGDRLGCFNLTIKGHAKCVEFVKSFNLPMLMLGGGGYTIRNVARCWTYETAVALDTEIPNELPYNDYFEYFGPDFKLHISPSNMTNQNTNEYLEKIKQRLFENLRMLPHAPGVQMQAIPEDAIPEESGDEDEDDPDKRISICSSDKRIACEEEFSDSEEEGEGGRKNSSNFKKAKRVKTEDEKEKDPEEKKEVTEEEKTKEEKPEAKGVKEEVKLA

[8] = tested on: CFPAC-1; assay: Cytotoxicity against human CFPAC-1 cells incubated for 24 hrs by MTT assay; format: functional, cell-based; details: CFPAC-1, 24 h
[9] = tested on: Capan-2; assay: Cytotoxicity against human Capan2 cells incubated for 24 hrs by MTT assay; format: functional, cell-based; details: Capan-2, 24 h
[10] = tested on: MIA PaCa-2; assay: Cytotoxicity against human MIAPaCa2 cells incubated for 24 hrs by MTT assay; format: functional, cell-based; details: MIA PaCa-2, 24 h
[11] = tested on: PANC-1; assay: Cytotoxicity against human PANC1 cells incubated for 24 hrs by MTT assay; format: functional, cell-based; details: PANC-1, 24 h
[12] = Cytotoxicity against mouse DLA cells incubated for 48 hrs by MTT assay; format: functional, cell-based
[13] = Cytotoxicity against mouse DLA cells incubated for 48 hrs by LDH release assay; format: functional, cell-based
[14] = Cytotoxicity against mouse DLA cells incubated for 48 hrs by trypan blue dye based assay; format: functional, cell-based
[15] = molecular target: Epidermal growth factor receptor (Homo sapiens) (UniProt P00533); assay: Inhibition of EGFR (unknown origin) at 10 uM by immunoassay relative to control
Epidermal growth factor receptor (Homo sapiens), sequence (P00533 whole entry): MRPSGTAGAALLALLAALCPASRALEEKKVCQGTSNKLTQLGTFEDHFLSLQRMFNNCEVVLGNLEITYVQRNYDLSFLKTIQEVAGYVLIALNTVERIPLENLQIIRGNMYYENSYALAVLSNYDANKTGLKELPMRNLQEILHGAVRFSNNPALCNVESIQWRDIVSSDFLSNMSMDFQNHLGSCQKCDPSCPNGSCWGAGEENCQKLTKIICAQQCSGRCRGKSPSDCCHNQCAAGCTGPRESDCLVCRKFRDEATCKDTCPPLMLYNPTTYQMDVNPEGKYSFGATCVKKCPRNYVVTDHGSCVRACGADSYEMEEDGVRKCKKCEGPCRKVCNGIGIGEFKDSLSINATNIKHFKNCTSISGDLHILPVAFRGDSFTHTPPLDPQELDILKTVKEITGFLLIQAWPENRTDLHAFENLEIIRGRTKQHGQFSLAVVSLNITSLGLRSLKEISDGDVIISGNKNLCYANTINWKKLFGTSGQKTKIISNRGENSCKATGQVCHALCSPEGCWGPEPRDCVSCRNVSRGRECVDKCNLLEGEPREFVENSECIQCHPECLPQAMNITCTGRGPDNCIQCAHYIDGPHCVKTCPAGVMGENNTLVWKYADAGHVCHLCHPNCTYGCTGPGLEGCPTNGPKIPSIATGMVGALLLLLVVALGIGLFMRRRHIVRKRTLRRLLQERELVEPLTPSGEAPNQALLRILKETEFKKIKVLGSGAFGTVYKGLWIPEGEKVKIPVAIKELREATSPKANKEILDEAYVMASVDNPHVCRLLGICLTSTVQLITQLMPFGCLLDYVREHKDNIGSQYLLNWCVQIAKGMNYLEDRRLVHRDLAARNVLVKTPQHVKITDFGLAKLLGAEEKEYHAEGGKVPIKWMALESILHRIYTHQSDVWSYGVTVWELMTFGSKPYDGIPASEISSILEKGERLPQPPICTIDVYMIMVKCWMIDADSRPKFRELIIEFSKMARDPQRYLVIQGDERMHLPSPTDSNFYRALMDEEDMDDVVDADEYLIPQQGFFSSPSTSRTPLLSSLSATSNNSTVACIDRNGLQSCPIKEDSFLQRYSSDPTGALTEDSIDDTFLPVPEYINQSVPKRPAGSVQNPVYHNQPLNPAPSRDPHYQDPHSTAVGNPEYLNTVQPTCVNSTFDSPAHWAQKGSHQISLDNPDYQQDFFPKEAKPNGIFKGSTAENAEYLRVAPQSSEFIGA

[16] = tested on: HepG2; assay: Cytotoxicity against human HepG2 cells incubated for 48 hrs by MTT assay; format: functional, cell-based; details: HepG2, 48 h
[17] = molecular target: Proto-oncogene tyrosine-protein kinase Src (Homo sapiens, UniProt P12931); assay: Inhibition of SRC (unknown origin) by Z'-LYTE assay
Proto-oncogene tyrosine-protein kinase Src, sequence (P12931 2-536 limits assumed): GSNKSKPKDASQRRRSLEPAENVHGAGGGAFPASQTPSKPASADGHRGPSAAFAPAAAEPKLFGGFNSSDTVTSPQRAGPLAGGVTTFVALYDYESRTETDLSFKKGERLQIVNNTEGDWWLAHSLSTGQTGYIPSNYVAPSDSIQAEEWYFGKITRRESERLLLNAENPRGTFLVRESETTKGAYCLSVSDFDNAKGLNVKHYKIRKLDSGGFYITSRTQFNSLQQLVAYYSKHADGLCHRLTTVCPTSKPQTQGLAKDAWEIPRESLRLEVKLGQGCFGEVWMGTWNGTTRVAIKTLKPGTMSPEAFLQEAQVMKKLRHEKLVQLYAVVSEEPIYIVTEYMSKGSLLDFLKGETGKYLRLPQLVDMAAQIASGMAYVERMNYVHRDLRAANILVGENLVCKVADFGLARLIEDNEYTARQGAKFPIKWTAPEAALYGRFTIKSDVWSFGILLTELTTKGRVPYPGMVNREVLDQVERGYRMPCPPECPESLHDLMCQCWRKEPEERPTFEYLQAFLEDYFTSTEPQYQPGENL

[18] = tested on: HT-29; assay: Cytotoxicity against human HT-29 cells incubated for 72 hrs by MTT assay; format: functional; details: HT-29, 72 h
[19] = tested on: Jurkat; assay: Cytotoxicity against human Jurkat cells incubated for 72 hrs by MTT assay; format: functional
[20] = molecular target: Serine protease hepsin (Homo sapiens, UniProt P05981); assay: Inhibition of recombinant human hepsin preincubated for 30 mins followed by Boc-QLR-AMC substrate addition by fluorescence assay
Serine protease hepsin, sequence (P05981 1-162 limits assumed): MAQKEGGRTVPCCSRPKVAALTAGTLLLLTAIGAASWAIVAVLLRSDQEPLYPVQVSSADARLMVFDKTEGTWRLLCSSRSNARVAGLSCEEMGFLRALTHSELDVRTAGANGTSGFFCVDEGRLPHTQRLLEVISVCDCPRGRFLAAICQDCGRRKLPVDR
Serine protease hepsin, sequence (P05981 163-417 limits assumed): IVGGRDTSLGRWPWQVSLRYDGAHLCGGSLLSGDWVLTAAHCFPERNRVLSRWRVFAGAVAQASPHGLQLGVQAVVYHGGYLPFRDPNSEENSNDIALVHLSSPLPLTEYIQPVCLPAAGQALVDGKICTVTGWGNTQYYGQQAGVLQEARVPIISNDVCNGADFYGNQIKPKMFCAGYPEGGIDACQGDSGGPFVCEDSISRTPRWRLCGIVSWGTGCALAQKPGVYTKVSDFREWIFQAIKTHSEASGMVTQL

[21] = molecular target: Hepatocyte growth factor activator serine protease (Homo sapiens, UniProt Q04756); assay: Inhibition of recombinant HGFA serine protease domain (unknown origin) preincubated for 30 mins followed by Boc-QLR-AMC substrate addition by fluorescence assay
Hepatocyte growth factor activator serine protease, sequence (Q04756 373-407 limits assumed): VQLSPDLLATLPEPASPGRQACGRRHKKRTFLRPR
Hepatocyte growth factor activator serine protease, sequence (Q04756 408-655 limits assumed): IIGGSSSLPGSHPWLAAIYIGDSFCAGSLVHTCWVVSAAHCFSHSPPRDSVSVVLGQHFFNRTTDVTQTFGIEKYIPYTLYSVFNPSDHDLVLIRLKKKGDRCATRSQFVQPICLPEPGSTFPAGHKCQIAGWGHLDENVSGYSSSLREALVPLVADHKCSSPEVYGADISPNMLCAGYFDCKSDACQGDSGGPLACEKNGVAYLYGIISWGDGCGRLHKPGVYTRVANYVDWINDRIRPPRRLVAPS

[22] = molecular target: Coagulation factor X (Homo sapiens, UniProt P00742); assay: Inhibition of recombinant factor 10a (unknown origin) preincubated for 30 mins followed by chromogenic substrate addition by fluorescence assay
Coagulation factor X, sequence (P00742 41-179 limits assumed): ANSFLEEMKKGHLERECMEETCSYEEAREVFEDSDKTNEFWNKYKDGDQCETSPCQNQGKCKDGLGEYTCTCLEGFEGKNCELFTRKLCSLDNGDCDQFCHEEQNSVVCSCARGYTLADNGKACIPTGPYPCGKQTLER
Coagulation factor X, sequence (P00742 235-488 limits assumed): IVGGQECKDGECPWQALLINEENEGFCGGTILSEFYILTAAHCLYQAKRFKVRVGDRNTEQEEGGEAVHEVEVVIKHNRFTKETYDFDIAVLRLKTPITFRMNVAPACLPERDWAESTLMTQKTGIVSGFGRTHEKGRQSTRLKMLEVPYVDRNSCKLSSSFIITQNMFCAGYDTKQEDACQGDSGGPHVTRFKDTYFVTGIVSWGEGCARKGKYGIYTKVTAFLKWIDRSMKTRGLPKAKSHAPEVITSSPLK

[23] = molecular target: Suppressor of tumorigenicity 14 protein (Homo sapiens, UniProt Q9Y5Y6); assay: Inhibition of recombinant human matriptase preincubated for 30 mins followed by Boc-QLR-AMC substrate addition by fluorescence assay
Suppressor of tumorigenicity 14 protein, sequence (Q9Y5Y6 whole entry): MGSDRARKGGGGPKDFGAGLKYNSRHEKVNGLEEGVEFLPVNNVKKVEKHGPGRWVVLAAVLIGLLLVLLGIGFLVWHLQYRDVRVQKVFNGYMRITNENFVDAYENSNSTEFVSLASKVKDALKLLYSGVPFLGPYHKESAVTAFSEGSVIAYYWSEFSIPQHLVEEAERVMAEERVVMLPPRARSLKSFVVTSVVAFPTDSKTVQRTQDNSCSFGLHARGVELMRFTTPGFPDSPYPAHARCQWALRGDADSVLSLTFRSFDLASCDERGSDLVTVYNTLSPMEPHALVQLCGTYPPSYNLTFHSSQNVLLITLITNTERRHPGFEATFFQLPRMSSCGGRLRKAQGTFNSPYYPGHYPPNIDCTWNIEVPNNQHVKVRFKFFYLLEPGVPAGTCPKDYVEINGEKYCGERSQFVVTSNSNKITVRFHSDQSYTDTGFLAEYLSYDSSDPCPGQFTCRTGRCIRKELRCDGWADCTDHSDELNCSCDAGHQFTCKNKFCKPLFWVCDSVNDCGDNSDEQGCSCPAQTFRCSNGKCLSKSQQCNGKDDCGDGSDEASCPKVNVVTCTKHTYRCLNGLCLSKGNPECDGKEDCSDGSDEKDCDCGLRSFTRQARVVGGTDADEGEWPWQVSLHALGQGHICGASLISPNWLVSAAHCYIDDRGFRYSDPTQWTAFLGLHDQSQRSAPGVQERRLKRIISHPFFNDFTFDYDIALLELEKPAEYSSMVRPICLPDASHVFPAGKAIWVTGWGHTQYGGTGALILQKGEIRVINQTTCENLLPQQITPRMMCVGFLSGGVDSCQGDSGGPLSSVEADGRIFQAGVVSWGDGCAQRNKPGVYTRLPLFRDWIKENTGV

[24] = tested on: 4T1; assay: Inhibition of colony formation in mouse 4T1 cells assessed as assessed as colony forming units at 2.5 uM incubated for 7 to 10 days by crystal violet staining based microscopic method (reference value: 364 +/- 46.4 No unit); format: functional
[25] = tested on: Lewis lung carcinoma cell line; assay: Cytotoxicity against mouse LLC cells incubated for 48 hrs by MTT assay; format: functional, cell-based
[26] = Cytotoxicity against mouse MM3MG cells incubated for 48 hrs by MTT assay; format: functional, cell-based
[27] = tested on: 4T1; assay: Inhibition of colony formation in mouse 4T1 cells assessed as colony forming units at 1.25 uM incubated for 7 to 10 days by crystal violet staining based microscopic method (reference value: 364 +/- 46.4 No unit); format: functional
[28] = tested on: B16; assay: Cytotoxicity against mouse B16 cells incubated for 48 hrs by MTT assay; format: functional, cell-based; details: B16, 48 h
[29] = tested on: DU-145; assay: Cytotoxicity against human DU145 cells incubated for 48 hrs by MTT assay; format: functional, cell-based; details: DU-145, 48 h
[30] = tested on: A549; assay: Cytotoxicity against human A549 cells incubated for 48 hrs by MTT assay; format: functional, cell-based; details: A549, 48 h
[31] = tested on: CT26; assay: Cytotoxicity against mouse CT26 cells incubated for 48 hrs by MTT assay; format: functional, cell-based; details: CT26, 48 h
[32] = tested on: 4T1; assay: Antitumor activity against mouse 4T1 cells implanted in BALB/c mouse assessed as median number of metastases per lung at 50 mg/kg, ig administered daily post implantation (reference value: 40.5); format: functional
[33] = tested on: 4T1; assay: Cytotoxicity against mouse 4T1 cells incubated for 48 hrs by MTT assay; format: functional, cell-based; details: 4T1, 48 h
[34] = tested on: HeLa; assay: Cytotoxicity against human HeLa cells incubated for 48 hrs by MTT assay; format: functional, cell-based
[35] = tested on: 4T1; assay: Antitumor activity against mouse 4T1 cells implanted in BALB/c mouse assessed as median number of metastases per lung at 100 mg/kg, ig administered daily post implantation (reference value: 40.5); format: functional
[36] = tested on: HK-2; assay: Cytotoxicity against human HK2 cells incubated for 48 hrs by MTT assay; format: cell-based; details: HK-2, 48 h
[37] = tested on: L02; assay: Cytotoxicity against human L02 cells incubated for 48 hrs by MTT assay; format: cell-based; details: L02, 48 h
[38] = Cytotoxicity against mouse Meth-A cells incubated for 48 hrs by MTT assay; format: functional, cell-based
[39] = molecular target: Prothrombin (Homo sapiens, UniProt P00734); assay: Inhibition of recombinant thrombin (unknown origin) preincubated for 30 mins followed by chromogenic substrate addition by fluorescence assay

COc1ccc(C(=O)CCc2cn3c(n2)sc2ccccc23)cc1
inhibition [1]: 61.4% | IC50 [2]: 1200 nM

NC(=S)N/N=C/c1ncccc1N [TRIAPINE]
IC50 [3]: 1300 nM

C/C1=C/C(=O)O[C@@H]2C[C@@H](CC[C@H](C)/C=C\C=C\CC1)O[C@@](O)([C@@H]1CSC(=O)N1)C2 [LATRUNCULIN A]
inhibition at 0.1 µg/mL [4]: > 95% | Activity [5]: <50% | inhibition at 0.1 µg/mL [6]: > 95%

O=C(CCCOc1ccc(N2C(=O)CSC2c2ccc(Br)s2)cc1)NO (configuration not stated)
IC50 [7]: 73 nM

CN(C(=S)NN=C(c1ccccn1)c1ccccn1)C1CCCCC1
IC50 [8]: 203 nM | IC50 [9]: 20 nM | IC50 [10]: 5 nM | IC50 [11]: 30 nM

O=C(CN1CCN(c2nc3ccccc3s2)CC1)NNC(=O)c1ccc(Br)cc1
IC50 [12]: 22600 nM | IC50 [13]: 23000 nM | IC50 [14]: 25000 nM

O=c1[nH]cc(F)c(=O)[nH]1 [FLUOROURACIL]
IC50 [8]: 41200 nM | IC50 [9]: 54200 nM | IC50 [10]: 24300 nM | IC50 [11]: 62300 nM

COc1ccc2c(c1)sc1nc(CCC(=O)c3ccc(OC)c(O)c3)cn12
inhibition [1]: 59.2% | IC50 [2]: 1300 nM

Clc1ccc(/C=N\Nc2ccc(-c3nc4ccccc4s3)cc2)cc1
inhibition [15]: 47.3% | IC50 [16]: 27 nM

Cc1nc(Nc2ncc(-c3ccccc3)s2)cc(N2CCN(CCO)CC2)n1
IC50 [17]: 97 nM

CC/C(=N\Nc1nc(-c2ccc(OC)cc2)cs1)c1cccc(Br)c1
CC50 [18]: 62000 nM | CC50 [19]: 114000 nM

CN(C)C(=S)NN=C(c1ccccn1)c1ccccn1
IC50 [8]: 200 nM | IC50 [9]: 1 nM | IC50 [10]: 1 nM | IC50 [11]: 4 nM

CC(=O)N[C@@H](CCCCN)C(=O)N[C@@H](CCCNC(=N)N)C(=O)N[C@@H](CC(C)C)C(=O)N[C@@H](CCCNC(=N)N)C(=O)c1nc2ccc(C(=O)NCc3ccc(C(=O)O)cc3)cc2s1
Ki [20]: 0.67 nM | Ki [21]: 3.7 nM | Ki [22]: 29 nM | Ki [23]: 2.5 nM

O=C1c2ccccc2C(=O)N1C/C=N\N=c1\scc(-c2cccc([N+](=O)[O-])c2)n1-c1ccccc1
CC50 [18]: 21300 nM | CC50 [19]: 21200 nM

COc1ccccc1C(=O)Nc1ccc2nc(SCC(=O)NCc3ccc(Cl)cc3)sc2c1
Activity [24]: 56 CFU | IC50 [25]: 6500 nM | IC50 [26]: > 40000 nM | Activity [27]: 189 CFU | IC50 [28]: 5600 nM | IC50 [29]: 1900 nM | IC50 [30]: 2400 nM | IC50 [31]: 4300 nM | Activity [32]: 19.5 | IC50 [33]: 1200 nM | IC50 [34]: 4300 nM | Activity [35]: 6 | IC50 [36]: > 40000 nM | IC50 [37]: > 40000 nM | IC50 [38]: 12300 nM

C/C(=N\NC1SC=C(c2ccc3ccccc3c2)N1C)c1ccccn1 (configuration not stated)
CC50 [18]: 57800 nM | CC50 [19]: 16200 nM

COC(=O)Nc1nc2cc(C(=O)c3cccs3)ccc2[nH]1
inhibition [1]: 58.3%

CC[C@H](NC(C)=O)C(=O)N[C@@H](CCCN)C(=O)N[C@@H](CC(C)C)C(=O)N[C@@H](CCCNC(=N)N)C(=O)c1nc2ccc(C(=O)NC3CCNCC3)cc2s1
Ki [20]: 0.27 nM | Ki [21]: 7.2 nM | Ki [22]: 447 nM | Ki [39]: 2950 nM | Ki [23]: 1.3 nM

Nc1ccn([C@@H]2O[C@H](CO)[C@@H](O)C2(F)F)c(=O)n1 [GEMCITABINE]
IC50 [8]: 22 nM | IC50 [9]: 40800 nM | IC50 [10]: 16 nM | IC50 [11]: 11000 nM
